Values after ≈ are worked out from the molar mass of the structure shown.
Columns and labels:
[1] = Cytotoxicity against african green monkey Vero cells after 72 hrs by MTT assay; assay type: cell-based; conditions: chlorocebus sabaeus
[2] = tested on: Mycobacterium tuberculosis; assay: Antitubercular activity against Mycobacterium tuberculosis H37Rv measured on day 4 by microplate Alamar blue assay; assay type: functional; conditions: 96 h
[3] = Selectivity index, ratio of CC50 for african green monkey Vero cells to MIC for Mycobacterium tuberculosis H37Rv; assay type: toxicity, cell-based; conditions: read-out: Selectivity Index

| Compound | CC50 at 72 h [1] [µg/mL] | MIC90 [2] [µM] | selectivity ratio [3] |
| --- | --- | --- | --- |
| COc1ccc(N2CCN(C(=O)c3cc4c5ccccc5n(C)c4c(-c4ccccc4)n3)CC2)cc1 | > 50 | 10.1 (≈ 4.81 µg/mL) | > 8.6 |
| Cc1ccc(N2CCN(C(=O)c3cc4c5ccccc5n(C)c4c(-c4ccccc4)n3)CC2)cc1 | > 50 | 9.3 (≈ 4.28 µg/mL) | > 11.6 |
| Cn1c2ccccc2c2cc(C(=O)N3CCN(c4ccccc4F)CC3)nc(-c3ccccc3)c21 | > 50 | 5.8 (≈ 2.69 µg/mL) | > 18.5 |
| CO[C@H]1/C=C/O[C@@]2(C)Oc3c(C)c(O)c4c(O)c(c(/C=N/N5CCN(C)CC5)c(O)c4c3C2=O)NC(=O)/C(C)=C\C=C\[C@H](C)[C@H](O)[C@@H](C)[C@@H](O)[C@@H](C)[C@H](OC(C)=O)[C@@H]1C [RIFAMPIN] | > 150 | 0.13 (≈ 0.107 µg/mL) | > 1360 |
| Cn1c2ccccc2c2cc(C(=O)N3CCN(c4cccc(Cl)c4Cl)CC3)nc(-c3ccccc3)c21 | > 50 | 2.9 (≈ 1.49 µg/mL) | > 33.3 |
| Cn1c2ccccc2c2cc(C(=O)N3CCN(c4ccc(Cl)cc4)CC3)nc(-c3ccccc3)c21 | > 50 | 83.3 (≈ 40.1 µg/mL) | > 1.3 |
| Cn1c2ccccc2c2cc(C(=O)N3CCN(c4ccccc4Cl)CC3)nc(-c3ccccc3)c21 | > 50 | 5 (≈ 2.4 µg/mL) | > 20.8 |
| Cn1c2ccccc2c2cc(C(=O)N3CCN(c4cccc(Cl)c4)CC3)nc(-c3ccccc3)c21 | > 50 | 79.6 (≈ 38.3 µg/mL) | > 1.3 |
| Cn1c2ccccc2c2cc(C(=O)N3CCN(c4ccccc4)CC3)nc(-c3ccccc3)c21 | > 50 | 27.4 (≈ 12.2 µg/mL) | > 4.1 |
| Cn1c2ccccc2c2cc(C(=O)N3CCN(Cc4ccccc4)CC3)nc(-c3ccccc3)c21 | > 50 | 8.9 (≈ 4.1 µg/mL) | > 12.2 |
| Cn1c2ccccc2c2cc(C(=O)N3CCN(c4ccc(F)cc4)CC3)nc(-c3ccccc3)c21 | > 50 | 5.6 (≈ 2.6 µg/mL) | > 19.2 |
| Cn1c2ccccc2c2cc(C(=O)N3CCN(c4ccccn4)CC3)nc(-c3ccccc3)c21 | > 50 | 9.8 (≈ 4.39 µg/mL) | > 11.4 |
| COc1ccccc1N1CCN(C(=O)c2cc3c4ccccc4n(C)c3c(-c3ccccc3)n2)CC1 | > 50 | 3.5 (≈ 1.67 µg/mL) | > 25 |
| Cn1c2ccccc2c2cc(C(=O)N3CCN(c4ccncc4)CC3)nc(-c3ccccc3)c21 | 18 (≈ 40.2 µM) | 9.8 (≈ 4.39 µg/mL) | 4.5 |
| Cc1ccccc1N1CCN(C(=O)c2cc3c4ccccc4n(C)c3c(-c3ccccc3)n2)CC1 | > 50 | 5.2 (≈ 2.4 µg/mL) | > 20.8 |

— ChEMBL document CHEMBL3734709, “Design, synthesis and evaluation of diarylpiperazine derivatives as potent anti-tubercular agents” (Eur J Med Chem, 2015)
